Results: patent publication US11673916B2, “Neuroprotective peptides and methods of their use” (University of Pittsburgh—Of the Commonwealth System of …, priority 2020, dated 2023)

Tested on: MCAo mouse model of ischemic stroke
Test: Transient middle cerebral artery occlusion (MCAo), infarct ratio by TTC staining
Format: in vivo
Conditions: 50 minutes MCAo, IP peptide at one and six hours after reperfusion, 24 h after reperfusion, mean±SEM (FIG. 6D)
Description: Mice were anesthetized with isoflurane and the common carotid artery was exposed. A single-use silicon-coated suture (MCAo suture #602256PK10; Doccol Corporation, Sharron, Mass.) was advanced 8-9 mm into the internal carotid artery, occluding the MCA. The suture was secured with 6-0 silk ligatures for 50 minutes, then removed. Twenty-four hours following cerebral reperfusion, mice were sacrificed and four 2-mm coronal brain sections were obtained from each animal. Sections were stained with 0.05% 2,3,5-triphenyltetrazolium chloride (TTC) in PBS for 30 minutes at room temperature. Brain sections were digitally scanned following staining and a blinded experimenter measured infarct ratios (infarct area/total section area) using NIH ImageJ software. Visual representation of this protocol is in FIG. 6B.
The neuroprotective efficacy of TAT-DP-2 in vivo was next tested. […]
Twenty-four hours following cerebral reperfusion after MCAo, total infarct ratios were analyzed (FIG. 6B) in tetrazolium chloride-stained brain sections (FIGS. 6B and 6C). […] A different, blinded observer then analyzed each animal and assigned an objective murine neurological score (MNS; Table 3) to each mouse over a 42-day period. As the MNS is based solely on characteristic motor deficits developed following left MCAo, all animals initially scored zero on the scale.

Sequence | mean total infarct ratio
YGRKKRRQRRRDFSSIST [TAT-Sc-2, TAT-linked scramble control peptide] | 0.121±0.009
YGRKKRRQRRRSIDSFTS [TAT-DP-2, TAT-linked declustering peptide 2] | 0.071±0.020
